For this assay, the system named is porcine coronary smooth muscles. Put plainly: Assay of constrictor suppressing activity on porcine coronary smooth muscles (antagonism of endothelin-1 constriction). Type of assay: cell-based. As to conditions: for pA₂: antagonistic activity on constriction by endothelin-1 given cumulatively about 15 minutes after the compound, negative logarithm of molar concentration of antagonist shifting the dose response curve by a factor of 2; for Relative potency: antagonistic activity on the constriction of porcine coronary smooth muscles, Example 1 = 100. As to the method: • (1) Assay of Constrictor Suppressing Activity on Porcine Coronary Smooth Muscles Spiral strips 2 mm x 15 mm prepared from the coronary right ramus circumflexus from which the adventitial connective tissues and the endothelial cells were removed were set to 4 ml organ baths. The tension of each strip was detected by a force displacement transducer UL-10GR (Minebea), and recorded by a polygraph (NEC Sanei). The organ baths were maintained at 37°C, and filled with a Krebs-Henseleit solution (composition: 118 mM NaCl, 4.7 mM KCl, 2.5 mM CaCl₂, 1.2 mM KH₂PO₄, 25.0 mM NaHCO₃, 1.2 mM MgSO₄, 10.0 mM glucose) gassed with 95% O₂ and 5% CO₂. A tension of 1.25 to 1.5 g was applied to each of the strips, followed by equilibration for 1.5 hours. 60 mM KCl was repeatedly applied thereto at intervals of 30 minutes until the constriction response became constant. After additional equilibration for 1.5 hours, a sample for assay was given thereto. The constriction of the strips was normalized by the constriction response of the individual strips to 60 mM KCl and statistically processed. The suppressing activity was determined as a pA₂ value by giving endothelin-1 cumulatively about 15 minutes after the compound having a predetermined concentration was given, and comparing the constriction thereof with that of a control sample in which only endothelin-1 was given. […] Such a case has not been reported yet. […] The affinity for the receptor was assayed by the following method.

Bridge positions count the residues as written; N and C are the ends. Square brackets hold non-standard residues; d marks the D form. Peptide text beside a SMILES is read from it. tBuAla = CC(C)(C)C[C@H](N)C(=O)O; Cha = N[C@@H](CC1CCCCC1)C(=O)O; Mpa = O=C(O)CCS

For the compound `CC[C@H](C)[C@H](NC(=O)[C@H](CC(C)C)NC(=O)CNC(=O)[C@H](CC(C)C)NC(=O)[C@H](Cc1c[nH]cn1)NC(=O)[C@@H]1CSSC[C@H](N)C(=O)N[C@@H](CO)C(=O)N[C@H]2CSSC[C@H](NC(=O)[C@H](CCC(=O)O)NC(=O)[C@H](CCCCN)NC(=O)[C@H](CC(=O)O)NC(=O)[C@H](CCSC)NC(=O)[C@H](CC(C)C)NC(=O)[C@H](CO)NC(=O)[C@H](CO)NC2=O)C(=O)N[C@@H](C(C)C)C(=O)N[C@@H](Cc2ccc(O)cc2)C(=O)N[C@@H](Cc2ccccc2)C(=O)N1)C(=O)N[C@@H](Cc1c[nH]c2ccccc12)C(=O)O` [Example 8, [Gly¹⁸, Leu¹⁹]-ET-1] (H-CSCSSLMDKECVYFCHLGLIW-OH; disulfide 1-15, 3-11), the pA₂ turned out to be 6.7 and the Relative potency worked out at 10.

For `CC[C@H](C)[C@H](NC(=O)[C@H](CC(C)(C)C)NC(=O)[C@@H](NC(=O)[C@H](CC(C)C)NC(=O)[C@H](Cc1c[nH]cn1)NC(=O)[C@@H]1CSSC[C@H](N)C(=O)N[C@@H](CO)C(=O)N[C@H]2CSSC[C@H](NC(=O)[C@H](CCC(=O)O)NC(=O)[C@H](CCCCN)NC(=O)[C@H](CC(=O)O)NC(=O)[C@H](CCSC)NC(=O)[C@H](CC(C)C)NC(=O)[C@H](CO)NC(=O)[C@H](CO)NC2=O)C(=O)N[C@@H](C(C)C)C(=O)N[C@@H](Cc2ccc(O)cc2)C(=O)N[C@@H](Cc2ccccc2)C(=O)N1)[C@@H](C)O)C(=O)N[C@@H](Cc1c[nH]c2ccccc12)C(=O)O` [Example 4, [Thr¹⁸, γLeu¹⁹]-ET-1] (H-CSCSSLMDKECVYFCHLT[tBuAla]IW-OH; disulfide 1-15, 3-11), the pA₂ amounted to 7.4 and the Relative potency was determined as 50.

Regarding `CC[C@H](C)[C@H](NC(=O)[C@H](CC(C)C)NC(=O)[C@@H](NC(=O)[C@H](CC(C)C)NC(=O)[C@H](Cc1c[nH]cn1)NC(=O)[C@@H]1CSSC[C@H](N)C(=O)N[C@@H](CO)C(=O)N[C@H]2CSSC[C@H](NC(=O)[C@H](CCC(=O)O)NC(=O)[C@H](CCCCN)NC(=O)[C@H](CC(=O)O)NC(=O)[C@H](CCSC)NC(=O)[C@H](C)NC(=O)[C@H](CO)NC(=O)[C@H](CO)NC2=O)C(=O)N[C@@H](C(C)C)C(=O)N[C@@H](Cc2ccc(O)cc2)C(=O)N[C@@H](Cc2ccccc2)C(=O)N1)[C@@H](C)O)C(=O)N[C@@H](Cc1c[nH]c2ccccc12)C(=O)O` [Example 15, [Ala⁶, Thr¹⁸, Leu¹⁹]-ET-1] (H-CSCSSAMDKECVYFCHLTLIW-OH; disulfide 1-15, 3-11), the pA₂ is reported as 6.5 and the Relative potency is listed as 6.

With `CC[C@H](C)[C@H](NC(=O)[C@H](Cc1ccccc1)NC(=O)[C@@H](NC(=O)[C@H](CC(C)C)NC(=O)[C@H](Cc1c[nH]cn1)NC(=O)[C@@H]1CSSC[C@H](N)C(=O)N[C@@H](CO)C(=O)N[C@H]2CSSC[C@H](NC(=O)[C@H](CCC(=O)O)NC(=O)[C@H](CCCCN)NC(=O)[C@H](CC(=O)O)NC(=O)[C@H](CCSC)NC(=O)[C@H](CC(C)C)NC(=O)[C@H](CO)NC(=O)[C@H](CO)NC2=O)C(=O)N[C@@H](C(C)C)C(=O)N[C@@H](Cc2ccc(O)cc2)C(=O)N[C@@H](Cc2ccccc2)C(=O)N1)[C@@H](C)O)C(=O)N[C@@H](Cc1c[nH]c2ccccc12)C(=O)O` [Example 3, [Thr¹⁸, Phe¹⁹]-ET-1] (H-CSCSSLMDKECVYFCHLTFIW-OH; disulfide 1-15, 3-11), the pA₂ is reported as 7.2 and the Relative potency was 32.

On to `CC[C@H](C)[C@H](NC(=O)[C@H](CC(C)C)NC(=O)[C@@H](NC(=O)[C@H](CC(C)C)NC(=O)[C@H](Cc1c[nH]cn1)NC(=O)[C@@H]1CSSC[C@H](N)C(=O)N[C@@H](C)C(=O)N[C@H]2CSSC[C@H](NC(=O)[C@H](CCC(=O)O)NC(=O)[C@H](CCCCN)NC(=O)[C@H](CC(=O)O)NC(=O)[C@H](CCSC)NC(=O)[C@H](CC(C)C)NC(=O)[C@H](CO)NC(=O)[C@H](CO)NC2=O)C(=O)N[C@@H](C(C)C)C(=O)N[C@@H](Cc2ccc(O)cc2)C(=O)N[C@@H](Cc2ccccc2)C(=O)N1)[C@@H](C)O)C(=O)N[C@@H](Cc1c[nH]c2ccccc12)C(=O)O` [Example 12, [Ala², Thr¹⁸, Leu¹⁹]-ET-1] (H-CACSSLMDKECVYFCHLTLIW-OH; disulfide 1-15, 3-11), for which the pA₂ is 6.7 and the Relative potency is recorded as 10.

Consider `CC[C@H](C)[C@H](NC(=O)[C@H](CC(C)C)NC(=O)[C@@H](NC(=O)[C@H](CC(C)C)NC(=O)[C@H](Cc1c[nH]cn1)NC(=O)[C@@H]1CSSCCC(=O)N[C@@H](CO)C(=O)N[C@H]2CSSC[C@H](NC(=O)[C@H](CCC(=O)O)NC(=O)[C@H](CCCCN)NC(=O)[C@H](CC(=O)O)NC(=O)[C@H](CCSC)NC(=O)[C@H](CC(C)C)NC(=O)[C@H](CO)NC(=O)[C@H](CO)NC2=O)C(=O)N[C@@H](C(C)C)C(=O)N[C@@H](Cc2ccc(O)cc2)C(=O)N[C@@H](Cc2ccccc2)C(=O)N1)[C@@H](C)O)C(=O)N[C@@H](Cc1c[nH]c2ccccc12)C(=O)O` [Example 11, [Mpr¹, Thr¹⁸, Leu¹⁹]-ET-1] ([Mpa]SCSSLMDKECVYFCHLTLIW-OH; disulfide 1-15, 3-11), for which the pA₂ is 6.5 and the Relative potency is 6.

`CC[C@H](C)[C@H](NC(=O)[C@H](CC(C)C)NC(=O)[C@@H](NC(=O)[C@H](CC(C)C)NC(=O)[C@H](Cc1c[nH]cn1)NC(=O)[C@@H]1CSSC[C@H](N)C(=O)N[C@@H](CO)C(=O)N[C@H]2CSSC[C@H](NC(=O)[C@H](CCC(=O)O)NC(=O)[C@H](C)NC(=O)[C@H](CC(=O)O)NC(=O)[C@H](CCSC)NC(=O)[C@H](CC(C)C)NC(=O)[C@H](CO)NC(=O)[C@H](CO)NC2=O)C(=O)N[C@@H](C(C)C)C(=O)N[C@@H](Cc2ccc(O)cc2)C(=O)N[C@@H](Cc2ccccc2)C(=O)N1)[C@@H](C)O)C(=O)N[C@@H](Cc1c[nH]c2ccccc12)C(=O)O` [Example 10, [Ala⁹, Thr¹⁸, Leu¹⁹]-ET-1] (H-CSCSSLMDAECVYFCHLTLIW-OH; disulfide 1-15, 3-11): the pA₂ is 5.9 and the Relative potency is given as 1.6.

For the compound `CC[C@H](C)[C@H](NC(=O)[C@H](CC1CCCCC1)NC(=O)[C@@H](NC(=O)[C@H](CC(C)C)NC(=O)[C@H](Cc1c[nH]cn1)NC(=O)[C@@H]1CSSC[C@H](N)C(=O)N[C@@H](CO)C(=O)N[C@H]2CSSC[C@H](NC(=O)[C@H](CCC(=O)O)NC(=O)[C@H](CCCCN)NC(=O)[C@H](CC(=O)O)NC(=O)[C@H](CCSC)NC(=O)[C@H](CC(C)C)NC(=O)[C@H](CO)NC(=O)[C@H](CO)NC2=O)C(=O)N[C@@H](C(C)C)C(=O)N[C@@H](Cc2ccc(O)cc2)C(=O)N[C@@H](Cc2ccccc2)C(=O)N1)[C@@H](C)O)C(=O)N[C@@H](Cc1c[nH]c2ccccc12)C(=O)O` [Example 2, [Thr¹⁸, Cha¹⁹]-ET-1] (H-CSCSSLMDKECVYFCHLT[Cha]IW-OH; disulfide 1-15, 3-11), the pA₂ stood at 7.7 and the Relative potency was determined as 100.

`CC[C@H](C)[C@H](NC(=O)[C@H](CC(C)C)NC(=O)[C@@H](NC(=O)[C@H](CC(C)C)NC(=O)[C@H](Cc1c[nH]cn1)NC(=O)[C@@H]1CSSC[C@H](N)C(=O)N[C@@H](CO)C(=O)N[C@H]2CSSC[C@H](NC(=O)[C@H](CCC(=O)O)NC(=O)[C@H](CCCCN)NC(=O)[C@H](CC(=O)O)NC(=O)[C@H](CCSC)NC(=O)[C@H](CC(C)C)NC(=O)[C@H](C)NC(=O)[C@H](CO)NC2=O)C(=O)N[C@@H](C(C)C)C(=O)N[C@@H](Cc2ccc(O)cc2)C(=O)N[C@@H](Cc2ccccc2)C(=O)N1)[C@@H](C)O)C(=O)N[C@@H](Cc1c[nH]c2ccccc12)C(=O)O` [Example 14, [Ala⁵, Thr¹⁸, Leu¹⁹]-ET-1] (H-CSCSALMDKECVYFCHLTLIW-OH; disulfide 1-15, 3-11): the pA₂ was determined as 5.5 and the Relative potency turned out to be 0.6.

Turning to `CC[C@H](C)[C@H](NC(=O)[C@H](CC(C)C)NC(=O)[C@H](CO)NC(=O)[C@H](CC(C)C)NC(=O)[C@H](Cc1c[nH]cn1)NC(=O)[C@@H]1CSSC[C@H](N)C(=O)N[C@@H](CO)C(=O)N[C@H]2CSSC[C@H](NC(=O)[C@H](CCC(=O)O)NC(=O)[C@H](CCCCN)NC(=O)[C@H](CC(=O)O)NC(=O)[C@H](CCSC)NC(=O)[C@H](CC(C)C)NC(=O)[C@H](CO)NC(=O)[C@H](CO)NC2=O)C(=O)N[C@@H](C(C)C)C(=O)N[C@@H](Cc2ccc(O)cc2)C(=O)N[C@@H](Cc2ccccc2)C(=O)N1)C(=O)N[C@@H](Cc1c[nH]c2ccccc12)C(=O)O` [Example 6, [Ser¹⁸, Leu¹⁹]-ET-1] (H-CSCSSLMDKECVYFCHLSLIW-OH; disulfide 1-15, 3-11), the pA₂ is 7.5 and the Relative potency turned out to be 63.

As for `CC[C@H](C)[C@H](NC(=O)[C@H](CC(C)C)NC(=O)[C@@H](NC(=O)[C@H](CC(C)C)NC(=O)[C@H](Cc1c[nH]cn1)NC(=O)[C@@H]1CSSC[C@H](N)C(=O)N[C@@H](CO)C(=O)N[C@H]2CSSC[C@H](NC(=O)[C@H](CCC(=O)O)NC(=O)[C@H](CCCCN)NC(=O)[C@H](CC(=O)O)NC(=O)[C@H](CCSC)NC(=O)[C@H](CC(C)C)NC(=O)[C@H](CO)NC(=O)[C@H](C)NC2=O)C(=O)N[C@@H](C(C)C)C(=O)N[C@@H](Cc2ccc(O)cc2)C(=O)N[C@@H](Cc2ccccc2)C(=O)N1)[C@@H](C)O)C(=O)N[C@@H](Cc1c[nH]c2ccccc12)C(=O)O` [Example 13, [Ala⁴, Thr¹⁸, Leu¹⁹]-ET-1] (H-CSCASLMDKECVYFCHLTLIW-OH; disulfide 1-15, 3-11), the pA₂ was found to be 6.9 and the Relative potency is 16.

(Values after patent publication EP0547317A1, “Endothelin antagonists” (TAKEDA CHEMICAL INDUSTRIES, LTD., priority 1991, dated 1993).)
